Type in all cases: cell-based
The test system of one test is IL-17FF. The test can be described thus: IL-17FF production by PHA-stimulated human PBMC (IL-17F ELISA). How it is done:
(§1) Analysis of Proliferation of and Cytokine Production by Human PBMC Stimulated with PHA
(§2) Peripheral blood mononuclear cells (PBMC) from healthy human donors were purified using Accuspin™ System-Histopaque-1077 (Sigma) according to the protocol recommended by the manufacturer. Purified PBMC were then washed twice with phosphate-buffered saline (PBS) and resuspended in RPMI1640 culture medium supplemented with 10% dialyzed heat inactivated fetal calf serum, 1.5 mM L-glutamine, 100 U penicillin/ml, and […] (all from PAN Biotech, Aidenbach, Germany). For stimulation, PBMC were seeded at 1×10^5 cells/well, activated with 2 μg/ml phytohaemagglutinin (PHA, Sigma) and incubated with the test compounds for 48 hours. IL-17A, IL-17F and INF-γ were then determined in the culture supernatant using a Luminex BioPlex system, following the manufacturer's instructions (BioRad, Munich, Germany). For screening, compounds were used at 10, 1, 0.1 and 0.01 μM. To determine the IC50, compounds were titrated semilogarithmically.
(§3) Cytokines were determined in the aforementioned culture supernatant using the following methods: IL-17AA/AF was measured using the Luminex BioPlex system (BioRad, Munich, Germany); IL-17AA using the human homodimer IL-17A ELISA Ready Set Go Kit from eBioscience (Frankfurt, Germany); IL-17FF using the human IL-17F ELI-Pair from Hölzel DiagnosticaGmBH (Köln, Germany); and IFN-γ using the OptElA human IFN-g ELISA from BD Bioscience (Heidelberg, Germany), all following the manufacturer's instructions.

The next test has as its system IFNγ. Briefly: IFN-γ production by PHA-stimulated human PBMC (IFN-g ELISA). The conditions noted are these: 48 h. How it is done: as §1
as §2, with “For stimulation, PBMC were seeded at 1×10^5 cells/well, activated with 2 μg/ml phytohaemagglutinin (PHA, Sigma) and incubated with the test compounds for 48 hours.” left out, “For screening, compounds were used at 10, 1, 0.1 and 0.01 μM. To determine the IC50, compounds were titrated semilogarithmically.” left out
as §3
For orientation: In an ELISA, binding on a coated surface is turned into a signal by an enzyme label.

Test [1] concerns PBMC (T cell proliferation). Briefly: T cell proliferation assay, PHA-stimulated human PBMC (BrdU ELISA). An outline of the steps:
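Healthy-donor human PBMC, Ficoll-isolated, seeded 1×10^5 cells/well in RPMI1640 with 10% dialyzed FCS, stimulated with 2 μg/ml PHA alongside test compound. Proliferation read after 48 hours by BrdU ELISA.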
(Uptake of a labelled nucleoside into DNA is a usual measure of proliferation.)

[2] abbreviates: PHA-stimulated human PBMC, 48 hours, BrdU, column D, activity classes 1-4, read-out: IC50 (Tcell proliferation).

Where two headings read alike, the source gives them in different places. Some results are limits rather than exact numbers.

As to `O=C(O)c1c(-c2c(F)cccc2Cl)noc1-c1cnn(-c2cccc(Cl)c2)c1C(F)(F)F` [Example B-18, 3-(2-chloro-6-fluorophenyl)-5-(1-(3-chlorophenyl)-5-(trifluoromethyl)-1H-pyrazol-4-yl)isoxazole-4-carboxylic acid], in the test on IL-17FF (human PBMC, 2 μg/ml PHA, 48 hours, read-out: B: IC50 (IL-17FF)), the IC50 is 1 to 10 µM.
As for `CCOC(=O)c1c(-c2c(F)cccc2Cl)noc1-c1cnn(-c2ccccc2Cl)c1C(F)(F)F` [Example B-33, ethyl 3-(2-chloro-6-fluorophenyl)-5-(1-(2-chlorophenyl)-5-(trifluoromethyl)-1H-pyrazol-4-yl)isoxazole-4-carboxylate], the IC50 with IL-17FF (Homo sapiens, PBMC, 48 h, read-out: B: IC50 (IL-17FF)) was in the range of 0.1 to 1 µM; in the test with IFNγ (read-out: C: IC50 (IFNγ)) it was 0.1 to 1 µM; in test [1] (Homo sapiens, 48 h, read-out: D: IC50 (Tcell proliferation)) it was 0.1 to 1 µM.
For `Cc1csc(-c2c(-c3c(F)cccc3Cl)noc2-c2cnn(-c3cccc(Cl)c3)c2C(F)(F)F)n1` [Example I-4], the IC50 is less than 0.01 µM with IL-17FF (Homo sapiens, PBMC, 48 h, read-out: IC50 (IL-17FF)); less than 0.01 µM in the test on IFNγ (read-out: IC50 (IFNγ)); less than 0.01 µM in test [1] (Homo sapiens, 48 h, read-out: IC50 (Tcell proliferation)).
Consider `Fc1cccc(Cl)c1-c1noc(-c2cnn(-c3cccnc3)c2C(F)(F)F)c1-c1cnco1` [IB-32, 3-(2-chloro-6-fluorophenyl)-4-(oxazol-5-yl)-5-(1-(pyridin-3-yl)-5-(trifluoromethyl)-1H-pyrazol-4-yl)isoxazole], for which the IC50 in test [1] (setting [2]) was 1 to 10 µM.
Turning to `Fc1cccc(Cl)c1-c1noc(-c2cnn(-c3ccncc3)c2C(F)(F)F)c1-c1cnco1` [IB-33, 3-(2-chloro-6-fluorophenyl)-4-(oxazol-5-yl)-5-(1-(pyridin-4-yl)-5-(trifluoromethyl)-1H-pyrazol-4-yl)isoxazole], in test [1] (setting [2]), the IC50 lay within 1 to 10 µM.
Same read-out and setting: in the case of `COc1cccc(Cl)c1-c1noc(-c2cnn(-c3ccccc3Cl)c2C(F)(F)F)c1-c1cnco1` [IB-34, 3-(2-chloro-6-methoxyphenyl)-5-(1-(2-chlorophenyl)-5-(trifluoromethyl)-1H-pyrazol-4-yl)-4-(oxazol-5-yl)isoxazole] it was 0.1 to 1 µM.

For the origin of these results see patent US8592456B2 (4SC Discovery GmbH, priority 2011, dated 2013).
